Assay results as given in US20230146455A1, “TREATMENT OF INFLAMMATORY DISEASES WITH PEPTIDES AND PHARMACEUTICAL COMPOSITIONS” (Yuyu Pharma, Inc., priority 2020, published 2023).
Where a SMILES comes first, the peptide text is derived from it. [ ]: non-standard residue; d: D form. Hyp = O=C(O)[C@@H]1C[C@@H](O)CN1

Assay: PBMC cell counts (total, live, viability; trypan blue, Countess) with and without LPS and test articles (Example 9)
Format: cell-based, human
Conditions: human; for viability at 24 h, 0.001 µM: PBMC + LPS(5 ug/ml) + compound 0.001 uM
Method in brief: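 Human PBMCs were pretreated 2 h with test articles (0.001–100 uM) or 0.5% DMSO vehicle, then given LPS at 5 ug/ml or no LPS, in triplicate. After 24 hr, total and live cells and viability were counted by 1:1 trypan blue staining on an automated counter.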

[1] = PBMCs, PBMC + LPS(5 ug/ml) + compound 0.01 uM, 24 hr
[2] = PBMCs, PBMC + LPS(5 ug/ml) + compound 0.1 uM, 24 hr
[3] = PBMCs, PBMC + LPS(5 ug/ml) + compound 1 uM, 24 hr
[4] = PBMCs, PBMC + LPS(5 ug/ml) + compound 10 uM, 24 hr
[5] = PBMCs, PBMC + LPS(5 ug/ml) + compound 100 uM, 24 hr

Structure (SMILES) | viability at 24 h, 0.001 µM (PBMCs, 24 hr) [%] | viability at 24 h, 0.01 µM [1] [%] | viability at 24 h, 0.1 µM [2] [%] | viability at 24 h, 1 µM [3] [%] | viability at 24 h, 10 µM [4] [%] | viability at 24 h, 100 µM [5] [%] | viability at 24 h, 0.01 µM (human PBMCs, PBMC + LPS(5 ug/ml), test article 0.01 uM, single replicates) [%] | viability at 24 h, 0.01 µM (PBMCs, PBMC + compound 0.01 uM, no LPS, 24 hr) [%] | viability at 24 h, 0.1 µM (PBMCs, PBMC + compound 0.1 uM, no LPS, 24 hr) [%] | viability at 24 h, 1 µM (PBMCs, PBMC + compound 1 uM, no LPS, 24 hr) [%] | viability at 24 h, 10 µM (PBMCs, PBMC + compound 10 uM, no LPS, 24 hr) [%] | viability at 24 h, 100 µM (PBMCs, PBMC + compound 100 uM, no LPS, 24 hr) [%]
CC(C)C[C@H](NC(=O)CNC(=O)[C@H](CC(C)C)NC(=O)[C@H](CCC(N)=O)NC(=O)CNC(=O)[C@@H]1C[C@@H](O)CN1)C(=O)N[C@@H](C)C(=O)NCC(=O)N1CCC[C@H]1C(=O)N[C@@H](CCCCN)C(=O)O [YDE-011] (H-[Hyp]GQLGLAGPK-OH) | 85 ± 5.1 | 81 ± 1.2 | 82 ± 4 | 79.7 ± 5.8 | 88.3 ± 1.5 | 74.3 ± 4.1 | 83 |  |  |  |  | 
CC(C)C[C@H](NC(=O)[C@H](CCC(N)=O)NC(=O)CNC(=O)[C@@H]1C[C@@H](O)CN1)C(=O)NCC(=O)O [YDE-043] (H-[Hyp]GQLG-OH; N-terminus and C-terminus assumed) | 79.3 ± 1.5 | 77.3 ± 6.9 | 82 ± 4 | 78 ± 5 | 83.3 ± 3.3 | 84.5 ± 4.5 |  |  |  |  |  | 
CC(C)C[C@H](NC(=O)CNC(=O)[C@H](CC(=O)O)NC(=O)[C@H](CCC(N)=O)NC(=O)CNC(=O)[C@@H]1C[C@@H](O)CN1)C(=O)N[C@@H](C)C(=O)NCC(=O)N1CCC[C@H]1C(=O)N[C@@H](CCCCN)C(=O)O [YY-101] (H-[Hyp]GQDGLAGPK-OH; N-terminus and C-terminus assumed) | 84.3 ± 2.6 | 77.3 ± 5 | 75.7 ± 4.7 | 66.7 ± 5.8 | 73.7 ± 4.8 | 76.7 ± 5.2 |  | 85 ± 2 | 84 | 89.5 ± 2.5 | 86 ± 1 | 86.5 ± 1.5
